Measurements: US20220401423A1, “METHODS FOR TREATING INFLAMMATORY BOWEL DISEASE” (Angion Biomedica Corp., priority 2019, published 2022)

Legend:
[1] = test system: DSS-induced chronic colitis/IBD; assay: DSS-induced chronic colitis/IBD mouse model; type: in vivo; details: 50 mg/kg, PO, BID, started 72 hours after DSS, 4 weeks; for colon length: compared to DSS-vehicle cohort
From the text: DSS is a sulfated polymer that alters tight junction proteins, leading to the disruption of the intestinal barrier, and is toxic to epithelial cells. Results obtained in DSS-induced animal IBD models have helped to understand the pathogenesis of IBD and to screen potential therapeutic agents. DSS-induced IBD is simple and reproducible and results in symptoms resembling those of ulcerative colitis. The development of acute, chronic, or relapsing symptoms of IBD is dose-dependent, and the molecular weight of the DSS is key not only in the induction of colitis but also in the location of induction. […] Various DSS dosage and duration are used to induce IBD in some animal models. Following DSS administration, animals usually develop colitis with weight loss and severe, bloody diarrhea. DSS colitis is characterized by mucosal ulceration, leukocyte infiltration, intestinal crypt distortion and epithelial hyperplasia.
Adult male CD-1 mice were fed 3% DSS in drinking water for 5 days with alternate cycles of normal drinking water for 5 days and continued a total of 3 DSS cycles in 4 weeks. This model has been established to induce chronic colitis/IBD. Vehicle (n=10/group) or Compound 1 (50 mg/kg, PO, BID) were administered 72 hours after DSS and continued treatment for 4 weeks, then all mice were sacrificed. A small group (n=6) with normal drinking water was included as a sham control. Gross morphological and histopathological end points were evaluated. Additionally, tissue from the middle colon (100 mg) from all groups was subjected to hydroxyproline assay for collagen estimation as a fibrotic end point.

[2] = test system: Acetic acid-induced colitis; assay: Acetic acid (AA) induced colitis mouse model; type: in vivo
From the text: Acetic acid-induced colitis is a common experimental animal model for IBD. Animals treated with acetic acid develop many pathological and histopathological characteristics in common with human ulcerative colitis. Rectal administration of acetic acid damages the mucosal epithelium and induces ulcerative colitis. The severity of the mucosal lesions that develop in acetic acid-induced colitis depends on the acetic acid concentration and the length of exposure. For example, injection of 25% acetic acid (AA) into the gastric lumen causes larger ulcerative lesions than injection of 5% acetic acid. Different concentrations of acetic acid and different exposure times have been reported to induce IBD in a rat model. Transmural necrosis in all layers of the bowel wall, severe neutrophil infiltration of the intestinal tissue, goblet cell depletion, edema, and submucosal ulceration are common manifestations of this model. Bloody diarrhea, reduction of the intestinal mucus, decreased nucleic acid (DNA and RNA) and total protein content, and increased colon weight and vascular permeability have also been observed. […] Acetic acid-induced colitis is also associated with changes NF-κB, inhibitor of κB (IκB) and IκB kinase expression.
Male CD-1 mice were infused with 4% AA in saline in 150 μL volume through rectal enema under isoflurane anesthesia. A sham group (n=6) received an equivalent volume of saline.
The remaining AA-treated mice (n=9 for each group) were then randomized to vehicle and/or Compound 1 treatment at 50 mg/kg, PO, BID for 3 days.

[3] = test system: TNBS-induced colitis; assay: TNBS-induced IBD/acute colitis mouse model, dose response (Example 3); type: in vivo
From the text: Intracolonic administration of TNBS (2,4,6-trinitrobenzenesulfonic acid)/ethanol induces a severe illness characterized by bloody diarrhea and a dramatic loss of body weight during the first week with increased colon damage score (Mateus, V., et al. Clin. Exp. Gastroenterol. 2018; 11:325-334). TNBS-induced colitis, characteristic of acute colitis and the early phase of IBD, is a commonly utilized animal model in rodents that shares significant properties with human Crohn's disease. Advantages of this model include reproducibility and technical simplicity (Filipescu, I. E., et al. PLoS One 2018 Aug. 23; 13(8):e0202929). The use of TNBS-induced colitis has been valuable in elucidating the mechanisms that mediate disease immune-pathogenesis. TNBS-induced colitis is a well-validated animal model to assess compounds with potential therapeutic effects such as anti-TNFα, corticosteroids, natural compounds and traditional medicine (Mateus 2018; Filipescu 2018; Wirtz, S. et al. Nat. Protoc. 2017 July; 12(7):1295-1309). Compound 1 was therefore tested in the well-established model of TNBS-induced IBD/Acute Colitis.
In this IBD model, 2,4,6-trinitrobenzenesulfonic acid (TNBS) was used to induce disease. The inflammatory bowel disease (IBD)/acute colitis model was conducted in male CD-1 mice, body weights 30-35 grams, from Charles River Laboratories (CRL). After receipt from the vendor, animals were acclimatized to the animal facility at least 5 days following the animal facility standard operating procedures. All animals were fed the normal chow diet, had access to water ad libitum and housed in a single room of the animal facility with a 12:12 hr light-dark cycle and independent ventilation, temperature and humidity control.
Compound 1 was dissolved in distilled water at 0.9 mg/mL, 2.7 mg/mL and 8.1 mg/mL, and 200 μL was administered via oral gavage into each mouse.
Male CD-1 mice were starved overnight. Then, mice (n=33) were infused with […] (2 mg/mouse) in 50% ethanol in a 100 μL volume via rectal enema under isoflurane anesthesia. A sham group (n=6) received an equal volume of 50% ethanol. […] Remaining Sham (n=4) and TNBS mice (n=7/group) were randomized to vehicle or Compound 1 treatment at 5 mg/kg, 15 mg/kg, and 45 mg/kg, PO, BID for 4 days.
After 4 days of Compound 1 or vehicle treatment, mice were sacrificed. Body weight (FIG. 5), colon length (FIG. 6 and FIG. 8), colon weight (FIG. 7), and gross morphological score/disease severity scores (FIG. 9; normal=0 and severe=4) were recorded. Blood/serum was collected. The mid and distal part of the colon was fixed in 10% neutral buffered formalin and the proximal part of the colon was snap frozen in liquid nitrogen and stored at minus 80° C. until use.
Histological scoring. After overnight fixation in formalin, tissues were dehydrated (graded alcohols) and cleared (xylene) before being embedded in paraffin wax. Sections of tissue were cut and stained with hematoxylin and eosin (H & E) and scored in a blinded manner (FIG. 10). Histological scoring was based on a semi-quantitative scoring system as published (Lab Invest. 1993 August; 69(2):238-49). The following were ranked: the extent of the destruction of normal mucosal architecture (0, normal; 1, 2, and 3, mild, moderate, and extensive damage, respectively), presence and degree of cellular infiltration (0, normal; 1, 2, and 3, mild, moderate, and transmural infiltration, respectively), extent of muscle thickening (0, normal; 1, 2, and 3, mild, moderate, and extensive thickening, respectively), crypt damage/goblet cell depletion (0, no loss, 1, 2, 3 for mild, moderate and extensive loss of goblet cells respectively (FIG. 11). The scores for each feature were summed with a maximum possible colon injury score of 12 (FIG. 12).
Alcian Blue/Fast red staining. Formalin fixed, paraffin embedded colon tissue sections were used for Alcian blue staining to evaluate crypt damage/goblet cell loss. […]

[4] = test system: TNBS-induced colitis; assay: TNBS-induced colitis mouse model, 50 mg/kg (Example 5); type: in vivo
Experimental: Using the same TNBS mouse model for IBD as described in Example 3, an experiment was performed with a 50 mg/kg dose of Compound 1, as described below.
Male CD-1 mice were infused with TNBS (2 mg/mouse) in 45% ethanol and 5% PBS in 150 μL volume through rectal enema under isoflurane anesthesia. A sham group (n=6) received an equal volume of 45% ethanol and PBS mixture.
Remaining TNBS mice (n=12/group) were randomized to vehicle or Compound 1 at 50 mg/kg, PO, BID for 3 days.

[5] = test system: collagen levels; assay: Antifibrotic activity, collagen levels (FIG. 23); details: model not stated
[6] = 50 mg/kg, PO, BID for 3 days, started 72 hours after AA, compared to vehicle cohort
[7] = 15 mg/kg and 45 mg/kg, BID, PO, 4 days, started 3 days after TNBS
[8] = 15 mg/kg and 45 mg/kg, BID, PO, 4 days, compared to pre-treatment and vehicle treated animals
[9] = 50 mg/kg, PO, BID for 3 days, started 72 hours after TNBS, compared to vehicle cohort

In the case of `COC(=O)c1ccc2c(n1)NC(=O)/C2=C(\Nc1ccc(N(C)C(=O)CN2CCN(C)CC2)cc1)c1ccccc1` [Compound 1, (Z)-methyl 3-(((4-(N-methyl-2-(4-methylpiperazin-1-yl)acetamido)phenyl)amino)(phenyl)methylene)-2-oxo-2,3-dihydro-1H-pyrrolo[2,3-b]pyridine-6-carboxylate], the “macroscopic colon damage score (appearance, inflammation, rectal bleeding)” value [1] is reported as “decreased”, the “histopathological injury score (crypt damage, epithelial erosion, inflammatory cell infiltration)” value ([1]; H&E stained colon sections) is reported as “decreased” and the colon length [1] is reported as “significantly increased”. For the same compound, the colon length ([1]; listed as test compound) was “significantly restored”, the “colonic hydroxyproline (HYP)” value ([1]; middle colon tissue) was “decreased” and the “decrease in colon length” value [2, 6] was “significantly mitigated the decrease”. For the same compound, the “gross morphological colon damage” value [2, 6] was “significantly mitigated”, the “histopathological colon damage (mucosal wall thickness, crypt/villi architecture)” value [2, 6] was “significantly mitigated” and the “AA-induced colitis (colon length, colon gross damage score, histopathological damage score, Alcian blue, H&E staining)” value ([2]; FIG. 2A-2E) was “significantly decreased”. The “MPO-staining of colon tissue” value ([3]; 5 mg/kg and higher, BID, PO, 4 days, versus TNBS+vehicle treated animals) was “significantly decreased”, the body weight [3, 7] was “significantly restored” and the colon length [3, 7] was “significantly restored”. For the same compound, the colon weight [3, 7] was “significantly restored”, the “TNBS-induced goblet cell loss (Alcian Blue staining)” value [3, 8] was “significantly reduced” and the “colon histology (H&E histological scoring)” value [3, 8] was “markedly improved”. For the same compound, the “Disease Severity Index” value ([3]; 15 mg/kg and 45 mg/kg, BID, PO, 4 days, score 0 (normal)-4 (severe)) was “marked improvement”, the “F4/80-staining of colon tissue” value ([3]; 15 mg/kg and higher, BID, PO, 4 days, versus TNBS+vehicle treated animals) was “significantly decreased” and the “IBD symptoms (body weight, colon length, colon weight, disease severity index)” value ([3]; FIG. 5-9) was “recover from IBD symptoms”. For the same compound, the “colon architecture (Alcian blue staining for goblet cells of crypt/villi)” value [4, 9] was “preserved”, the colon damage score [4, 9] was “decreased” and the colon histopathological score [4, 9] was “decreased”. For the same compound, the colon length [4, 9] was “restored”, the mortality [4, 9] was “significantly decreased” and the “TNBS-induced increase in serum cytokines (interleukin-1α, TNFα, PDGF)” value ([4]; 50 mg/kg, PO, BID for 3 days, serum) was “significantly blocked”. For the same compound, the “IBD symptoms (colon length, colon gross damage score, Alcian blue staining of goblet cells, colon histopathological score)” value ([4]; FIG. 25A-25F) was “recover from IBD symptoms”, the survival ([4]; TNBS induced colitis mortality model, FIG. 3) was “increased” and the “collagen levels (antifibrotic activity)” value [5] was “reduced”.
